Measured values: PMC8286840, “Identifying SARS-CoV-2 antiviral compounds by screening for small molecule inhibitors of Nsp3 papain-like protease” (Biochemical Journal, 2021)
Counter-ions that a name gives are not always drawn. Like-named read-outs stand apart in the source and are kept apart here.

Assays:
[1] = biological target: T1, SARS-CoV-2 PLpro (nsp3 1564–1878) (Severe acute respiratory syndrome coronavirus 2, UniProt P0DTD1); experiment: biochemical; design: FRET-quenched peptide (Pro3) cleavage by PLpro, 10 min pre-incubation, slope over 20 min, normalised to no-compound control; settings: low concentration screen, read-out: % of control remaining
[2] = biological target: T1, SARS-CoV-2 PLpro (nsp3 1564–1878); experiment: biochemical; design: FRET-quenched peptide (Pro3) cleavage by PLpro, 10 min pre-incubation, slope over 20 min, normalised to no-compound control; settings: high concentration screen, read-out: % of control remaining

## NC(=O)c1cc(N2CC2)c([N+](=O)[O-])cc1[N+](=O)[O-] [CB 1954]
[1]; Well no.=189
  remaining activity at 1.25 µM: 94.7%
[2]; Well no.=189
  remaining activity at 3.75 µM: 95.5%

## Cc1c(NC(=O)c2cc(C(N)=O)nc3cc(F)ccc23)c(C(F)(F)F)nn1Cc1ccc(C#N)cc1 [BAY-876]
[1]; Well no.=8680
  remaining activity at 1.25 µM: 101%
[2]; Well no.=8680
  remaining activity at 3.75 µM: 98.3%

## NCCCCNCCCN [Spermidine]
[1]; Well no.=7069
  remaining activity at 1.25 µM: 107%
[2]; Well no.=7069
  remaining activity at 3.75 µM: 105%

## COc1cc(N)c(Cl)cc1C(=O)N[C@@H]1CCN(CCCOc2ccc(F)cc2)C[C@@H]1OC (racemic) [Cisapride]
[1]; Well no.=6909
  remaining activity at 1.25 µM: 91.7%
[2]; Well no.=6909
  remaining activity at 3.75 µM: 90.7%

## COC1=CC(c2cc3ccccc3[nH]2)=N/C1=C\c1[nH]c(C)cc1C [Obatoclax mesylate (GX15-070)]
[1]; Well no.=4619
  remaining activity at 1.25 µM: 95.3%
[2]; Well no.=4619
  remaining activity at 3.75 µM: 98.7%

## C=CCc1ccccc1OCC(O)CNC(C)C (stereo not drawn) [Alprenolol hydrochloride]
[1]; Well no.=342
  remaining activity at 1.25 µM: 95.5%
[2]; Well no.=342
  remaining activity at 3.75 µM: 97.7%

## Cc1ccc(=O)n(-c2ccccc2)c1 [Pirfenidone]
[1]; Well no.=904
  remaining activity at 1.25 µM: 107%
[2]; Well no.=904
  remaining activity at 3.75 µM: 109%

## CCCN1CCc2cc(O)cc3c2[C@H]1Cc1ccc(O)c(O)c1-3 [R(-)-2,10,11-Trihydroxy-N-propylnoraporphine hydrobromide]
[1]; Well no.=636
  remaining activity at 1.25 µM: 103%
[2]; Well no.=636
  remaining activity at 3.75 µM: 103%

## O=C(O)CCC/C=C\C[C@@H]1[C@@H](/C=C/[C@@H](O)COc2cccc(C(F)(F)F)c2)[C@H](O)C[C@@H]1O (racemic) [Fluprostenol]
[1]; Well no.=4528
  remaining activity at 1.25 µM: 96.4%
[2]; Well no.=4528
  remaining activity at 3.75 µM: 99.8%

## Nc1ncnc2c1C(=O)N(c1ccc(C3CCC(CC(=O)O)CC3)cc1)CCO2 (stereo not drawn) [{4-[4-(4-amino-5-oxo-7,8-dihydropyrimido[5,4-f][1,4]oxazepin-6(5H)-yl)phenyl]cyclohexyl}acetic acid]
[1]; Well no.=5830
  remaining activity at 1.25 µM: 105%
[2]; Well no.=5830
  remaining activity at 3.75 µM: 103%

## Cc1cc(Nc2cc(N3CCN(C)CC3)nc(/C=C/c3ccccc3)n2)n[nH]1 [ENMD-2076]
[1]; Well no.=5093
  remaining activity at 1.25 µM: 102%
[2]; Well no.=5093
  remaining activity at 3.75 µM: 105%

## C[C@@H]1OC(=O)[C@H]2C[C@H]3CCCC[C@@H]3[C@@H](/C=C/[C@H]3CCC[C@H](C)N3C)[C@@H]12 [Himbacine]
[1]; Well no.=3329
  remaining activity at 1.25 µM: 99%
[2]; Well no.=3329
  remaining activity at 3.75 µM: 98.7%

## C[C@H]1O[C@@H](O[C@H]2[C@@H](O)C[C@H](O[C@H]3[C@@H](O)C[C@H](O[C@H]4CC[C@@]5(C)[C@H](CC[C@@H]6[C@@H]5CC[C@]5(C)[C@@H](C7=CC(=O)OC7)CC[C@]65O)C4)O[C@@H]3C)O[C@@H]2C)C[C@H](O)[C@@H]1O [Digitoxin]
[1]; Well no.=3463
  remaining activity at 1.25 µM: 104%
[2]; Well no.=3463
  remaining activity at 3.75 µM: 105%

## Cc1nc(-c2ccccc2)c(-c2ccncc2)o1 [SC-68376]
[1]; Well no.=2650
  remaining activity at 1.25 µM: 96.3%
[2]; Well no.=2650
  remaining activity at 3.75 µM: 102%

## CCS(=O)(=O)CCn1c([N+](=O)[O-])cnc1C [Tinidazole]
[1]; Well no.=1958
  remaining activity at 1.25 µM: 93%
[2]; Well no.=1958
  remaining activity at 3.75 µM: 94.1%

## C[Se]CC[C@H](N)C(=O)O [Selenomethionine]
[1]; Well no.=4141
  remaining activity at 1.25 µM: 97.8%
[2]; Well no.=4141
  remaining activity at 3.75 µM: 98.7%

## N=C(N)SCCN [2-(2-Aminoethyl)isothiourea dihydrobromide]
[1]; Well no.=353
  remaining activity at 1.25 µM: 96.2%
[2]; Well no.=353
  remaining activity at 3.75 µM: 97.5%

## CNC(=O)c1ccccc1Sc1ccc2c(/C=C/c3ccccn3)n[nH]c2c1 [Axitinib]
[1]; Well no.=2803
  remaining activity at 1.25 µM: 101%
[2]; Well no.=2803
  remaining activity at 3.75 µM: 99.1%

## N[C@@H](CCC(=O)O)C(=O)O [(S)-Glutamic acid]
[1]; Well no.=6165
  remaining activity at 1.25 µM: 98.9%
[2]; Well no.=6165
  remaining activity at 3.75 µM: 96.9%

## Nc1ncnc2c1nc(Br)n2[C@@H]1O[C@@H]2COP(=O)(O)O[C@H]2[C@H]1O [8-Bromo-cAMP sodium]
[1]; Well no.=129
  remaining activity at 1.25 µM: 108%
[2]; Well no.=129
  remaining activity at 3.75 µM: 111%

## N[C@@H](Cn1ccc(=O)c(O)c1)C(=O)O [L-Mimosine]
[1]; Well no.=3819
  remaining activity at 1.25 µM: 92.9%
[2]; Well no.=3819
  remaining activity at 3.75 µM: 94.6%

## CCCN1CCCC[C@H]1C(=O)Nc1c(C)cccc1C [Ropivacaine hydrochloride]
[1]; Well no.=5891
  remaining activity at 1.25 µM: 98.9%
[2]; Well no.=5891
  remaining activity at 3.75 µM: 97.5%

## NCCCC[C@H](N[C@@H](CCc1ccccc1)C(=O)O)C(=O)N1CCC[C@H]1C(=O)O [Lisinopril (dihydrate)]
[1]; Well no.=7736
  remaining activity at 1.25 µM: 95.6%
[2]; Well no.=7736
  remaining activity at 3.75 µM: 96.7%

## C[C@H]1[C@H](C)CC[C@]2(C(=O)O)CC[C@]3(C)C(=CC[C@@H]4[C@@]5(C)C[C@@H](O)[C@H](O)[C@@](C)(CO)[C@@H]5[C@H](O)C[C@]43C)[C@H]12 [Madecassic acid]
[1]; Well no.=3657
  remaining activity at 1.25 µM: 104%
[2]; Well no.=3657
  remaining activity at 3.75 µM: 104%

## CC(C)[C@H](NC(=O)OCc1ccccc1)C(=O)N[C@@H](CC(=O)O)C(=O)CF [EP1013]
[1]; Well no.=6886
  remaining activity at 1.25 µM: 96.4%
[2]; Well no.=6886
  remaining activity at 3.75 µM: 96.6%

## Cc1cnc(-c2cc(N3CCN(C(=O)CCS(C)(=O)=O)CC3)ncc2Cl)c(C)c1 [PF-5274857]
[1]; Well no.=4739
  remaining activity at 1.25 µM: 99.5%
[2]; Well no.=4739
  remaining activity at 3.75 µM: 102%

## O=c1c2ccccc2nc2n1CCc1c-2[nH]c2ccccc12 [Rutaecarpine]
[1]; Well no.=1396
  remaining activity at 1.25 µM: 96.2%
[1]; Well no.=3709
  remaining activity at 1.25 µM: 100%
[2]; Well no.=1396
  remaining activity at 3.75 µM: 99.4%
[2]; Well no.=3709
  remaining activity at 3.75 µM: 101%

## CN(C)C(=O)N[C@H]1CC[C@H](CCN2CCN(c3cccc(Cl)c3Cl)CC2)CC1 [Cariprazine (hydrochloride)]
[1]; Well no.=6661
  remaining activity at 1.25 µM: 108%
[2]; Well no.=6661
  remaining activity at 3.75 µM: 103%

## N[C@@H](Cc1ccccc1)C(=O)N1C/C(=C/c2ccc(Cl)c(Cl)c2)C(=O)/C(=C\c2ccc(Cl)c(Cl)c2)C1 [RA190]
[1]; Well no.=8408
  remaining activity at 1.25 µM: 89.3%
[2]; Well no.=8408
  remaining activity at 3.75 µM: 89.8%

## CCN(CC)CCOc1ccc(C(=C(Cl)c2ccccc2)c2ccccc2)cc1 [Clomiphene]
[1]; Well no.=2273
  remaining activity at 1.25 µM: 96.5%
[2]; Well no.=2273
  remaining activity at 3.75 µM: 96.3%

## Nc1ncnc2c1ncn2[C@H]1C[C@H](O)[C@@H](CO)O1 [2'-Deoxyadenosine]
[1]; Well no.=6691
  remaining activity at 1.25 µM: 106%
[1]; Well no.=7722
  remaining activity at 1.25 µM: 95.5%
[2]; Well no.=6691
  remaining activity at 3.75 µM: 105%
[2]; Well no.=7722
  remaining activity at 3.75 µM: 101%

## Nc1c2c(nc3ccccc13)CCCC2O (stereo not drawn) [Hydroxytacrine maleate]
[1]; Well no.=514
  remaining activity at 1.25 µM: 102%
[2]; Well no.=514
  remaining activity at 3.75 µM: 101%

## O=C(O)CC(=O)CC(=O)O [3-Oxopentanedioic acid]
[1]; Well no.=7499
  remaining activity at 1.25 µM: 97.9%
[2]; Well no.=7499
  remaining activity at 3.75 µM: 99.7%

## CN(C)CCn1cc(S(=O)(=O)c2cccc(F)c2)c2cccnc21 [WAY-208466 dihydrochloride]
[1]; Well no.=6065
  remaining activity at 1.25 µM: 98.6%
[2]; Well no.=6065
  remaining activity at 3.75 µM: 97.1%
